IC50, inhibition and melting point data for four compounds are collected here from article PMC10046946, “Novel Phthalic-Based Anticancer Tyrosine Kinase Inhibitors: Design, Synthesis and Biological Activity” (Current Issues in Molecular Biology, 2023).

Series [1] deals with K562 (chronic myelogenous leukemia). Nature of the series: MTT cell proliferation assay, K562. In kind it is cell-based. The settings on record: Homo sapiens, K562, 72 h of exposition, read-out: Anti-proliferative activity IC50, K562. As for the experimental part: (§1) Tests to determine the effects of the synthesized compounds on cell viability and the half-maximal inhibitory concentration (IC50) were performed using the MTT assay, as described in our prior work.
(§2) The target compounds 5, 6, 8–12, 14, 15, 17–22 and 24–26 were tested for antiproliferative activity against six cancer cell lines: K562 (chronic myelogenous leukemia), HL-60 (promyelocytic leukemia), MCF-7 (breast adenocarcinoma), HepG2 (human liver cancer), A549 (lung carcinoma) and OKP-GS (renal cell carcinoma). The RPMI 1788 cells (B lymphocyte, human) were used as a control to evaluate the system toxicity of the studied compounds to normal cells. Sorafenib, nilotinib and lapatinib were utilized as reference standards for comparison.
On the technique in general: Tetrazolium dyes change colour on reduction, which living cells bring about.

Series [2] relates to HL-60 (promyelocytic leukemia). The experiment in a line: MTT cell proliferation assay, HL-60. Type of series: cell-based. Conditions: Homo sapiens, HL-60, 72 h of exposition, read-out: Anti-proliferative activity IC50, HL-60. As for the experimental part: as §1, §2
Series [3] deals with MCF-7 (breast adenocarcinoma). The experiment in a line: MTT cell proliferation assay, MCF-7. Type of series: cell-based. Conditions: Homo sapiens, MCF7, MCF-7, 72 h of exposition, read-out: Anti-proliferative activity IC50, MCF-7. As for the experimental part:
as §1, §2

The test system of series [4] is HepG2 (human liver cancer). Nature of the series: MTT cell proliferation assay, HepG2. Conditions: Homo sapiens, HepG2, 72 h, HepG2, 72 h of exposition, read-out: Anti-proliferative activity IC50, HepG2. In kind it is cell-based. As for the experimental part:
as §1, §2

The test system of the next series is A549 (lung carcinoma). Nature of the series: MTT cell proliferation assay, A549. Type of series: cell-based. The settings on record: Homo sapiens, A549, 72 h of exposition, read-out: Anti-proliferative activity IC50, A549. As for the experimental part:
as §1, §2

The test system of series [5] is OKP-GS (renal cell carcinoma). Nature of the series: MTT cell proliferation assay, OKP-GS. In kind it is cell-based. The settings on record: 72 h of exposition, read-out: Anti-proliferative activity IC50, OKP-GS. As for the experimental part: as §1, §2
The subject of series [6] is RPMI 1788 cells (B lymphocyte, human). The experiment in a line: MTT cell proliferation assay, normal RPMI 1788 cells. The settings on record: normal human lymphoblastoid cells RPMI 1788, 72 h of exposition, read-out: Anti-proliferative activity IC50, RPMI 1788. Type of series: cell-based. As for the experimental part:
as §1, §2

For a further series, the target named is T1, EGFR (Homo sapiens, UniProt P00533).
T1 construct: purchased Promega
The experiment in a line: ADP-Glo kinase assay, EGFR. Type of series: biochemical. For orientation: ADP-Glo turns the ADP formed in a reaction into a luminescent signal.

The next series has as its target T2, HER2 (Homo sapiens, UniProt P04626).
T2 construct: purchased Promega
Nature of the series: ADP-Glo kinase assay, HER2. In kind it is biochemical. As for the experimental part:
(§3) The ADP-Glo kinase assay (Promega, Madison, WI, USA) was used to screen compounds 5, 8–10, 14, 17, 19 and 24 for the tyrosine kinase (Kinase Selectivity Profiling System TK-1, Promega, Madison, WI, USA) and serine/threonine kinase (Kinase Selectivity Profiling System Other/CK-1, Promega, Madison, WI, USA) inhibition effects according to the manufacturer’s technical manual. The luminescence data were analyzed as described in our prior work.
(§4) The selectivity of the potential kinase inhibitor against a specific protein kinase or a specific family of kinases was investigated using the Kinase Selectivity Profiling System TK-1, Other/CK-1 and ADP-Glo™ Kinase assay kit (Promega, Madison, WI, USA).

The target in another series is T3, HER4 (Homo sapiens, UniProt Q15303).
T3 construct: purchased Promega
Nature of the series: ADP-Glo kinase assay, HER4. In kind it is biochemical. As for the experimental part: as §3, §4

For series [7], the target named is T4, IGF1R (insulin-like growth factor 1 receptor) (Homo sapiens, UniProt P08069).
T4 construct: purchased Promega
Nature of the series: ADP-Glo kinase assay, IGF1R. In kind it is biochemical. As for the experimental part: as §3, §4

The target of the next series is T5, InsR (insulin receptor) (Homo sapiens, UniProt P06213).
T5 construct: purchased Promega
Nature of the series: ADP-Glo kinase assay, InsR. Type of series: biochemical. As for the experimental part: as §3, §4

A further series concerns the target T6, KDR (VEGFR-2) (Homo sapiens, UniProt P35968).
T6 construct: purchased Promega
The experiment in a line: ADP-Glo kinase assay, KDR. Type of series: biochemical.

In another series the target is T7, PDGFRα (Homo sapiens, UniProt P16234).
T7 construct: purchased Promega
Nature of the series: ADP-Glo kinase assay, PDGFRα. In kind it is biochemical. As for the experimental part: as §3, §4

In another series the target is T8, PDGFRβ (Homo sapiens, UniProt P09619).
T8 construct: purchased Promega
The experiment in a line: ADP-Glo kinase assay, PDGFRβ. Type of series: biochemical. As for the experimental part:
as §3, §4

The target of a further series is T9, Aurora A (Homo sapiens, UniProt O14965).
T9 construct: purchased Promega
T9 sequence (O14965 1-403): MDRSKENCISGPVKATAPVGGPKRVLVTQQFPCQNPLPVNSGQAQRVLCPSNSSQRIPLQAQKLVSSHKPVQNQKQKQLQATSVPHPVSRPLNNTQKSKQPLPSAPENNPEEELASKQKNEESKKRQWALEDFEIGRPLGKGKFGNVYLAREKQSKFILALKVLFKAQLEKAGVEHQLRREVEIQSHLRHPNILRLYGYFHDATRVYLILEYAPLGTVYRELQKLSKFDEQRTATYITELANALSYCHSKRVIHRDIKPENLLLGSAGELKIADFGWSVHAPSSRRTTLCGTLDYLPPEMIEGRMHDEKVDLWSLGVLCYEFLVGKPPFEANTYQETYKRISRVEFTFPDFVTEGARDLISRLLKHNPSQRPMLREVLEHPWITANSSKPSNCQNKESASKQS
Nature of the series: ADP-Glo kinase assay, Aurora A. In kind it is biochemical. As for the experimental part: as §3, §4

The target of a further series is T10, Aurora B (Homo sapiens, UniProt Q96GD4).
T10 construct: purchased Promega
Nature of the series: ADP-Glo kinase assay, Aurora B. In kind it is biochemical. As for the experimental part:
as §3, §4

T4 sequence (P08069 31-1367): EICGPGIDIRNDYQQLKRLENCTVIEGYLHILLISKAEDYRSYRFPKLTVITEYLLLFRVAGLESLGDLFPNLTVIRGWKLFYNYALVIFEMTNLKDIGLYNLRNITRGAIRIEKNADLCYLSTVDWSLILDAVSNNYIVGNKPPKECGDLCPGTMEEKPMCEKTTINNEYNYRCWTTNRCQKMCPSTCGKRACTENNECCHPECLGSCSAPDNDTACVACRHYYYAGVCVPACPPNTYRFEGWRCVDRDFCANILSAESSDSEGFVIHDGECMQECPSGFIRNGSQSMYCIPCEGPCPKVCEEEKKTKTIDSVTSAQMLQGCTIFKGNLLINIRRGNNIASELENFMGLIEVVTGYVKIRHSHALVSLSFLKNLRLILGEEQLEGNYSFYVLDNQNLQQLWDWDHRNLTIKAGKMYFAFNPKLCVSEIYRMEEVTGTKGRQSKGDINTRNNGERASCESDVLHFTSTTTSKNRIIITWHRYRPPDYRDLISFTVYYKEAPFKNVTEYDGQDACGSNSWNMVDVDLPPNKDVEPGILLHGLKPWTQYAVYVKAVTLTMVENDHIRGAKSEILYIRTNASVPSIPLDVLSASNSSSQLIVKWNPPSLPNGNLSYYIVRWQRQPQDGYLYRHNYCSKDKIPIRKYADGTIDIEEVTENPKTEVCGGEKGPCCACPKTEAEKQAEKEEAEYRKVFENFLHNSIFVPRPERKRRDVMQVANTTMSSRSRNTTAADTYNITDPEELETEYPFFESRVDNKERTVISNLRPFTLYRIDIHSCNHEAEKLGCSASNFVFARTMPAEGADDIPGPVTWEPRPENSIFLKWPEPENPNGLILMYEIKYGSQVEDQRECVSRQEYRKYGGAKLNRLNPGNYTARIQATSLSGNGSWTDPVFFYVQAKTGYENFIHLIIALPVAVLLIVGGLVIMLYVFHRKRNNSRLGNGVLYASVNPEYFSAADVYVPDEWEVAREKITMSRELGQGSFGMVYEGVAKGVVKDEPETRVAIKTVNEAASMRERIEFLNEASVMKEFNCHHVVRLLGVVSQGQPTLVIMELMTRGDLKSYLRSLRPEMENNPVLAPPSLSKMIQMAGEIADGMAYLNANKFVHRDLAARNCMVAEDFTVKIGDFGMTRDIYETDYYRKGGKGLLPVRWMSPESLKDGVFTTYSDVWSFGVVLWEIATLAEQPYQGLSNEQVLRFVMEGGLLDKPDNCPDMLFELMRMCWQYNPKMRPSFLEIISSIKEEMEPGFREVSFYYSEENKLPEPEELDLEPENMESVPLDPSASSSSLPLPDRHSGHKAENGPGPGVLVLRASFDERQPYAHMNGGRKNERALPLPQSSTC
T1 sequence (P00533 25-1210): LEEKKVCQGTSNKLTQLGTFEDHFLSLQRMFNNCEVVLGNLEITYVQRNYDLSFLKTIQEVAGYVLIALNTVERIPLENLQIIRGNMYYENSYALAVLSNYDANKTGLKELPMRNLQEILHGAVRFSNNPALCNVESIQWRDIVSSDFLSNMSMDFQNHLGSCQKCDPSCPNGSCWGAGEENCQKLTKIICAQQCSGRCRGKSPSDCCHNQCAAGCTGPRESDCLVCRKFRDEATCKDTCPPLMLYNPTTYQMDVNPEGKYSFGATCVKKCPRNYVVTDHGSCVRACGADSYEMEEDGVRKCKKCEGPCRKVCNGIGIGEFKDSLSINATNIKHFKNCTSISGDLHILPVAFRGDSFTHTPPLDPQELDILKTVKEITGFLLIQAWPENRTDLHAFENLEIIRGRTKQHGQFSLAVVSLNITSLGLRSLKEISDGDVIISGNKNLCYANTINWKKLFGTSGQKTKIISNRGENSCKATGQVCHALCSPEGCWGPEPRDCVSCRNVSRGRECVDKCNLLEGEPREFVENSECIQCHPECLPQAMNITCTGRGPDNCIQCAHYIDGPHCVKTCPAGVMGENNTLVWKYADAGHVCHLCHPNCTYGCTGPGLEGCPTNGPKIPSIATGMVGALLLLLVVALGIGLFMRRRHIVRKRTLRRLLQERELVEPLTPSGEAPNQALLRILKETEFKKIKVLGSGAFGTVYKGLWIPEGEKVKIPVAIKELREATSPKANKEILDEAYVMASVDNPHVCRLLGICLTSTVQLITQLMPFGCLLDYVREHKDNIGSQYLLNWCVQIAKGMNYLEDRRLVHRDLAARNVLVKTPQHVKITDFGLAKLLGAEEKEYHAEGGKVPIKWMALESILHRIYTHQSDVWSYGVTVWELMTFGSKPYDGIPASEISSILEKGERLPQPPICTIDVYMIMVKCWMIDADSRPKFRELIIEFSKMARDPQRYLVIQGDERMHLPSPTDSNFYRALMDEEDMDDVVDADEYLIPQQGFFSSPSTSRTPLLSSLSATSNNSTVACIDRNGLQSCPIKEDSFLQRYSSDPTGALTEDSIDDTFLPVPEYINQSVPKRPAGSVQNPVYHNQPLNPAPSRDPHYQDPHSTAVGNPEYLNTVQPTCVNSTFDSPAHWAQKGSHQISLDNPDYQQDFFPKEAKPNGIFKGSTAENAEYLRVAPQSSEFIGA
T5 sequence (P06213 28-1382): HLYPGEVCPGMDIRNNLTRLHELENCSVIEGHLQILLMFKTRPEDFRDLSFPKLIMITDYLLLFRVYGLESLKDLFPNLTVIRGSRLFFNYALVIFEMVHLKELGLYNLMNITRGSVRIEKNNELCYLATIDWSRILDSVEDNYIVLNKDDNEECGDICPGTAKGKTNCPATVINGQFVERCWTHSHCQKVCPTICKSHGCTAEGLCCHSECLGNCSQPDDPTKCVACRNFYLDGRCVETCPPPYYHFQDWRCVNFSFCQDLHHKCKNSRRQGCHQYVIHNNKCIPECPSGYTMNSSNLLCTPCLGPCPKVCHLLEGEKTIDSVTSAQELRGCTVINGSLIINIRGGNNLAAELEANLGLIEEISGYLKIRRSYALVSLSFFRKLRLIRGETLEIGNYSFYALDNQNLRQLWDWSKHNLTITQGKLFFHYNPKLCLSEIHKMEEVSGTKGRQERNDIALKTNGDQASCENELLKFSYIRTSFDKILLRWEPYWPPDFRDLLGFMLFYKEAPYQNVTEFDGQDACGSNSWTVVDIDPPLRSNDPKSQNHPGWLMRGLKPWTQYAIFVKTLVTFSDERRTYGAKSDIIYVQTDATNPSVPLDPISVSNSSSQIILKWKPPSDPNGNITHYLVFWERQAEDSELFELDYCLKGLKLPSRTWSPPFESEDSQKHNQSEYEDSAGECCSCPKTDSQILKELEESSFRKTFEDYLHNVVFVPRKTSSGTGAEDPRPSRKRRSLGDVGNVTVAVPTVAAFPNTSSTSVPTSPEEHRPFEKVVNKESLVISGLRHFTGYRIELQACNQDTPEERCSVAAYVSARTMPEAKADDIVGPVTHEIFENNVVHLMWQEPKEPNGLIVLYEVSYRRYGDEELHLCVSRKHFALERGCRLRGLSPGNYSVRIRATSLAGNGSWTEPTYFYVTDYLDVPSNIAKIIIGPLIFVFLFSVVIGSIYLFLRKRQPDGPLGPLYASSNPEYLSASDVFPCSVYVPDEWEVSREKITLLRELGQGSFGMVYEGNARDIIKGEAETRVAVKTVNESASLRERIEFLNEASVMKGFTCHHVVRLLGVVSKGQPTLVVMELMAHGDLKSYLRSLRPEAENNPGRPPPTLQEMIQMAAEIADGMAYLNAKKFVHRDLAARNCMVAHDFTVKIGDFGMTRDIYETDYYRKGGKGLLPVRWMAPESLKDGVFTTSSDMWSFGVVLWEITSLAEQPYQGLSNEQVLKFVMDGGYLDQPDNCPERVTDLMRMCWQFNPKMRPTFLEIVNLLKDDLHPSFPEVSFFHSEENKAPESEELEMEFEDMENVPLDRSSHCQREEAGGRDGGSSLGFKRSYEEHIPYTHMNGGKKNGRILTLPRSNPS
T10 sequence (Q96GD4 whole entry): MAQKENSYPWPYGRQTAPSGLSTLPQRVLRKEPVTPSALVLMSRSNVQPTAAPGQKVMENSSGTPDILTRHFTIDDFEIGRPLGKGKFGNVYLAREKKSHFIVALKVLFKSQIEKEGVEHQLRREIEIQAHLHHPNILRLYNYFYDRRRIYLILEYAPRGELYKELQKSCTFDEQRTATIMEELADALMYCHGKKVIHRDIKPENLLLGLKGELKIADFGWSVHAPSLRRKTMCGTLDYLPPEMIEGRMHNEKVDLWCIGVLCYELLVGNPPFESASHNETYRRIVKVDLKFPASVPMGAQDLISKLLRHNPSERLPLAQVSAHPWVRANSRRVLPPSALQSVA

What is called IC50 is the concentration needed to halve the response being measured. In general, inhibition refers to the change of the read-out against control, counted positive when it falls. Read a high inhibition as strong suppression. The melting point is the temperature, or range, at which the solid turns liquid. With `O=C(Nc1cccc(C(F)(F)F)c1)c1cccc(C(=O)N2CCN(C(=O)c3ccccc3F)CC2)c1` [Compound 8, 3-(4-(2-Fluorobenzoyl)piperazine-1-carbonyl)-N-(3-(trifluoromethyl)phenyl)benzamide], the melting point fell in the range of 145 to 147 °C. Further, the IC50 in [1] stood at 18.3 ± 1.15 µM. Moreover, the IC50 in [2] was 18.2 ± 1.02 µM. Moreover, the IC50 in series [3] was 24.7 ± 5.95 µM. The IC50 in series [4] worked out at 35.49 ± 0.34 µM. Also, the IC50 in the series on A549 (lung carcinoma) was over 50 µM. The IC50 in [5] was over 50 µM. Also, in [6], the IC50 was found to be 24.9 ± 1.17 µM. Also, testing at 10 µM against EGFR gave an inhibition of 14%. The same compound had an inhibition at 10 µM on HER2 of 0%. Also, the inhibition at 10 µM against HER4 turned out to be 0%. For the same compound, at 10 µM the inhibition in series [7] was 0%. The compound further gave an inhibition at 10 µM against InsR (insulin receptor) of 6%. Moreover, at KDR (VEGFR-2), the inhibition at 10 µM is 34%. For the same compound, the inhibition at 10 µM against PDGFRα was found to be 0%. This compound also had an inhibition at 10 µM on PDGFRβ of 0%. On Aurora A, this compound showed an inhibition at 10 µM of 0%. This compound also registered an inhibition at 10 µM against Aurora B of 0%.
Take `O=C(Nc1cccc(C(F)(F)F)c1)c1cccc(C(=O)N2CCN(C(=O)c3cccc(F)c3)CC2)c1` [Compound 9, 3-(4-(3-Fluorobenzoyl)piperazine-1-carbonyl)-N-(3-(trifluoromethyl)phenyl)benzamide]: the melting point lay within 97 to 101 °C. For the same compound, in [1], the IC50 came to 21 ± 0.59 µM. For the same compound, the IC50 in series [2] is 21.9 ± 1.59 µM. The IC50 in series [3] came to 26.3 ± 3.71 µM. For the same compound, the IC50 in series [4] is 33.3 ± 3.45 µM. Also, in the series with A549 (lung carcinoma), the IC50 is over 50 µM. Further, the IC50 in series [5] was over 50 µM. Further, in series [6], the IC50 was determined as 26.3 ± 1.88 µM. In addition, the inhibition at 10 µM against EGFR was determined as 90%. Besides, the inhibition at 10 µM on HER2 stood at 64%. The inhibition at 10 µM on HER4 stood at 37%. For the same compound, 10 µM produced 0% inhibition in [7]. The same compound had an inhibition at 10 µM against InsR (insulin receptor) of 0%. This compound had an inhibition at 10 µM at KDR (VEGFR-2) of 33%. Also, at 10 µM the inhibition against PDGFRα was 20%. Also, the inhibition at 10 µM against PDGFRβ stood at 24%. At 10 µM the inhibition against Aurora A was 0%. Moreover, the inhibition at 10 µM against Aurora B amounted to 0%.
`Cc1cn(-c2cc(NC(=O)c3cccc(C(=O)Nc4cc(-n5cnc(C)c5)cc(C(F)(F)F)c4)c3)cc(C(F)(F)F)c2)cn1` [Compound 10, N1,N3-bis(3-(4-methyl-1H-imidazol-1-yl)-5-(trifluoromethyl)phenyl)isophthalamide] returned a melting point of 304 to 306 °C. In addition, the IC50 in series [1] is 26 ± 2.38 µM. Further, the IC50 in [2] was determined as 35.8 ± 3.19 µM. The IC50 in series [3] was 38.5 ± 1.95 µM. Besides, the IC50 in series [4] is 23.2 ± 1.81 µM. Further, the IC50 in the series with A549 (lung carcinoma) is over 50 µM. In addition, the IC50 in series [5] was 13.2 ± 1.3 µM. Besides, in series [6], the IC50 was determined as 13 ± 0.3 µM. The same compound showed an inhibition at 10 µM at EGFR of 1%. The inhibition at 10 µM against HER2 was determined as 19%. The compound further yielded an inhibition at 10 µM against HER4 of 0%. Further, the inhibition at 10 µM in [7] worked out at 0%. This compound also registered an inhibition at 10 µM at InsR (insulin receptor) of 0%. The compound also registered an inhibition at 10 µM against KDR (VEGFR-2) of 33%. The compound further came in with an inhibition at 10 µM against PDGFRα of 17%. On PDGFRβ, this compound yielded an inhibition at 10 µM of 0%. For the same compound, 10 µM produced 0% inhibition on Aurora A. 10 µM produced 0% inhibition on Aurora B.
The compound `Cc1cn(-c2cc(NC(=O)c3ccc(C(=O)Nc4cc([N+](=O)[O-])ccc4C)cc3)cc(C(F)(F)F)c2)cn1` [Compound 24, N1-(3-(4-methyl-1H-imidazol-1-yl)-5-(trifluoromethyl)phenyl)-N4-(2-methyl-5-nitrophenyl)terephthalamide] had a melting point of 269 to 270 °C. Further, the half-maximal inhibitory concentration (IC50) in [1] turned out to be 17 ± 0.2 µM. Also, the IC50 in [2] is 26.4 ± 3.35 µM. Moreover, the IC50 in [3] stood at 15.5 ± 1.16 µM. The IC50 in [4] was over 50 µM. Moreover, the IC50 with A549 (lung carcinoma) was over 50 µM. Further, in series [5], the IC50 is over 50 µM. For the same compound, the IC50 in series [6] is 36.5 ± 0.86 µM. This compound gave an inhibition at 10 µM against EGFR of 2%. The compound further came in with an inhibition at 10 µM at HER2 of 49%. This compound also showed an inhibition at 10 µM at HER4 of 3%. In series [7], this compound displayed an inhibition at 10 µM of 0%. Also, the inhibition at 10 µM at InsR (insulin receptor) stood at 0%. The inhibition at 10 µM against KDR (VEGFR-2) was found to be 0%. At PDGFRα, this compound showed an inhibition at 10 µM of 0%. On PDGFRβ, testing at 10 µM gave an inhibition of 0%. The same compound displayed an inhibition at 10 µM on Aurora A of 0%. In addition, the inhibition at 10 µM on Aurora B was determined as 3%.
